In patent US20240026339A1, “COMPOSITION AND THE USE OF CELL LYSIS REAGENTS” (Vilnius University, priority 2022, published 2024):
Several values for one entry are separate records, joined by “and”; a condition that tells them apart may be missing. Identical values can stand only once. Counter-ions that a name gives are not always drawn.

System: K-562 cells
Experiment: Cell lysis efficiency and cDNA yield in bulk (lysis and RT in one mix, PCR, BioAnalyzer/Qubit)
Format: cell-based
Conditions: cDNA yield divided by cDNA yield with 0.1% NP40 of the same Part
Procedure: The cells, lysis reagents and reverse transcription reagents are mixed together to create one reaction mix. The mRNA released from the lysed cells is reverse transcribed using oligonucleotides into a copy DNA (cDNA). The resulting cDNA is then purified using AMPure purification kit, PCR-amplified and analysed by capillary electrophoresis (BioAnalyzer). The DNA amount is also evaluated by fluorometer (Qubit) and the cDNA yields between different lysis conditions is compared to the reference (0.1% NP40).
The detailed composition and reaction conditions are provided below. Briefly, cell lysis and RT reaction were carried out in bulk with MCF7 and K562 cells. Samples containing 0.02%-0.6% of different cell lysis reagent were evaluated. After the RT reaction, cDNA was pass through a column to remove cell debris and gDNA, purified with 1.2× AMPure, eluted in 20 μl water, amplified by 12-cycles of PCR, purified reaction product with 1.2× AMPure and analyzed on BioAnalyzer chip.
Different sets of detergents were prepared in DEPC-water. Each set was tested separately. The cDNA yield for each detergent was compared to the cDNA yield obtained with 0.1% NP40 final concentration.
4. Setting Up RT Reaction: • 1. […] The final volume of reaction was 40 uL. • 4. RT reaction was carried out at 50° C. for 60 min followed by inactivation at 85° C. for 5 min. • 5. After RT reaction samples were immediately processed further by passing them through Zymo column for 1 min at 10000 g. • 6. The flow through fraction was cleaned up with 1.2× AMPure beads and eluted in 20 μL of water and processed further.
5. cDNA Amplification: • 7. cDNA amplification mix was prepared as follows:
• 8. 12 μL of cDNA amplification mix were mixed with 8 μL of purified cDNA material resulting in a total of 20 μL solution. • 9. Each sample was transferred to thermocycler and PCR program was started:
• 10. Amplified cDNA was cleaned up with 1.2× AMPure beads and eluted to 20 μL of water. • 11. DNA concentration of each sample was measured with Qubit. Samples were frozen only after cDNA amplification if needed). • 12. Calculate the dilution factor needed to reach 1 ng/uL for 0.1% NP40 sample, which is used as a reference. • 13. Load 1 μL of each sample (diluted as much times as 0.1% NP40 sample) on BioAnalyzer (BioA) HS DNA kit/chip and calculate the cDNA yield (ng/μl).
The “Relative lysis efficiency” was estimated by first quantifying the cDNA yield (ng/μl) obtained at a given lysis condition and then dividing the said cDNA yield by the cDNA yield obtained when using 0.1% NP40.

Molecule | Relative lysis efficiency (single detergent at 0.1%) | Relative lysis efficiency (single detergent at 0.2%) | Relative lysis efficiency (single detergent at 0.4%) | Relative lysis efficiency (single detergent at 0.6%) | Relative lysis efficiency (single detergent at 0.02%) | Relative lysis efficiency (single detergent at 0.3%)
CCCCCCCCCc1ccc(OCCOCCOCCOCCOCCOCCOCCOCCOCCO)cc1 [Igepal CO630] | 0.98 |  |  |  |  | 
NP40 | 1.00 | 1.01 | 0.98 | 1.18 |  | 
CCCCCCCCCCCCN(C)CC(=O)O [N-Laurylsarcosine] | 0.35 |  |  |  | 0.41 | 
(1-dodecyl) trimethylamonium bromide | 0.25 |  |  |  | 0.88 | 
Tween 20 | 0.98 and 0.99 | 0.99 | 0.99 | 1.02 |  | 0.99
C[C@H](CCC(=O)NCCC[N+](C)(C)CCCS(=O)(=O)[O-])[C@H]1CC[C@H]2[C@@H]3[C@H](O)C[C@@H]4C[C@H](O)CC[C@]4(C)[C@H]3C[C@H](O)[C@]12C [CHAPS] | 0.43 |  |  |  | 0.43 | 
CCCCCCCCS[C@@H]1O[C@H](CO)[C@@H](O)[C@H](O)[C@H]1O [n-octyl-β-D-thioglucopyranoside (OTG), n-octyl-β-D-thioglucopyranoside] | 0.31 |  |  |  | 0.37 | 
C[C@@H]1CC[C@@]2(OC1)O[C@H]1[C@@H](O)[C@H]3[C@@H]4CC[C@H]5C[C@@H](O[C@@H]6O[C@H](CO)[C@H](O[C@@H]7O[C@H](CO)[C@@H](O)[C@H](O[C@@H]8OC[C@@H](O)[C@H](O)[C@H]8O)[C@H]7O[C@@H]7O[C@H](CO)[C@H](O)[C@H](O[C@@H]8O[C@H](CO)[C@@H](O)[C@H](O)[C@H]8O)[C@H]7O)[C@H](O)[C@H]6O)[C@H](O)C[C@]5(C)[C@H]4CC[C@]3(C)[C@H]1[C@@H]2C [Digitonin] | 0.85 |  |  |  | 0.85 | 
C[C@H](CCC(=O)O)[C@H]1CC[C@H]2[C@@H]3CC[C@@H]4C[C@H](O)CC[C@]4(C)[C@H]3C[C@H](O)[C@]12C [Deoxycholic acid Na salt] | 0.24 |  |  |  | 0.51 | 
Tergitol NP40 | 0.63 |  |  |  |  | 
Tween 60 | 0.65 |  |  |  |  | 
CCCCCCCCO[C@@H]1O[C@H](CO)[C@@H](O)[C@H](O)[C@H]1O [n-octyl-β-D-glucopyranoside (OBG), n-octyl-β-D-glucopyranoside] | 0.36 |  |  |  | 0.36 | 
Triton X-100 | 0.78 |  |  |  |  | 
Tween 80 | 0.50 and 0.73 | 0.69 | 0.71 | 0.70 |  | 0.72
